Drawing on patent US20110065694A1 (priority 2009, published 2011), this text covers IC50 for 38 compounds.

Read-outs that look alike come from different tables or passages of the source.

This test concerns the target human histamine H3 receptor (Homo sapiens, UniProt Q9Y5N1). Description: H3 GTPγS assay (SPA method), histamine H3 in vitro assay. It counts as biochemical. On the procedure: Briefly, cells expressing the human histamine H3 receptor were homogenized in 15 mM Tris-HCl pH 7.5, 2 mM MgCl2, 0.3 mM EDTA, and 1 mM EGTA. […] Membranes were frozen in liquid nitrogen until use. On the day of the assay, membranes were thawed and diluted in assay buffer (20 mM HEPES pH 7.4, 100 mM NaCl, 10 μg/ml saponin, 1 mM MgCl2) to give 500 μg/ml and mixed (v/v) with GDP in assay buffer for a final GDP concentration of 10 μM and incubated on ice for at least […]. PVT-WGA beads (Amersham, RPNQ001) were diluted in assay buffer at 50 mg/mL and mixed with GTPγ[^35S] (Amersham, SJ1308) diluted in assay buffer to give ˜25,000 dpm/10 μL and mixed vol/vol just before the start of the reaction.
For antagonists testing, 10 μL of a reference agonist ([…]) instead of 10 μL buffer was added at a concentration corresponding to the EC80 (30 nM).
The compounds provided herein were tested in the histamine H3 in vitro assay. In one embodiment, the respective HCl salts of the compounds provided herein were prepared using standard chemical procedures and tested in the histamine H3 in vitro assay.

Where [1] appears, read: membranes of cells expressing human H3, GTPγ[35S] SPA, antagonist testing with reference agonist at EC80 (30 nM), in one embodiment HCl salts tested, read-out: Potency (functional potency as indicated by IC50).

Sequence of human histamine H3 receptor (Q9Y5N1 whole entry): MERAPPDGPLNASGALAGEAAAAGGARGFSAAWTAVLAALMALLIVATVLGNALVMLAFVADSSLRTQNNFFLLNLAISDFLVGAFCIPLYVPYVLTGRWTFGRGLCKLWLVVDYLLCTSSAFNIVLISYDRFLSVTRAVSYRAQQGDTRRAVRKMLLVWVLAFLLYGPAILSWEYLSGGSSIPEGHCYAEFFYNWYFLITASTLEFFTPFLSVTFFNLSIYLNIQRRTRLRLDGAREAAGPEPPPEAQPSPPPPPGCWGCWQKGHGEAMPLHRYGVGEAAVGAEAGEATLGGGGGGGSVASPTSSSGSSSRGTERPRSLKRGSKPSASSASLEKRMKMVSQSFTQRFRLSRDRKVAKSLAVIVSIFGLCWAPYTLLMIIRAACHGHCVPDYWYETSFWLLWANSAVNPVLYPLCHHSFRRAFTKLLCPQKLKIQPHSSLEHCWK

As a reminder, the IC50 is the concentration at which inhibition is half-maximal. For the compound `N#Cc1ccc(-c2ccc3c(c2)nc2n3CC3CCC(C2)N3C2CCC2)cc1` (single isomer, unassigned) [Compound 44], the IC50 under setting [1] is under 10 nM.

With `N#Cc1ccc(-c2ccc3c(c2)nc2n3CC3CCC(C2)N3C2CCC2)cc1` (single isomer, unassigned) [Compound 45], under setting [1], the IC50 was under 1000 nM. The same measure, in the same setting: then `N#Cc1ccc(-c2ccc3c(c2)nc2n3CCN3CCCCC3C2)cc1` (single isomer, unassigned) [Compound 46], with under 100 nM; and `N#Cc1ccc(-c2ccc3c(c2)nc2n3CCN3CCCCC3C2)cc1` (single isomer, unassigned) [Compound 47], with under 10 nM; and `c1cc2c(cc1CN1CCOCC1)nc1n2CCN2CCCCC2C1` (single isomer, unassigned) [Compound 50], with under 10 nM. Same read-out and setting: then `c1cc2c(cc1CN1CCOCC1)nc1n2CCN2CCCCC2C1` (single isomer, unassigned) [Compound 51], with under 100 nM. The same measure, in the same setting: then `c1cn2cc(-c3ccc4c(c3)nc3n4CCCN4CCCCC4C3)ccc2n1` (single isomer, unassigned) [Compound 70], with under 10 nM; and `c1cn2cc(-c3ccc4c(c3)nc3n4CCCN4CCCCC4C3)ccc2n1` (single isomer, unassigned) [Compound 71], with under 100 nM; and `c1cn2cc(-c3ccc4c(c3)nc3n4CCN4CCCC4C3)ccc2n1` (single isomer, unassigned) [Compound 77], with under 10 nM.

As for `c1cn2cc(-c3ccc4c(c3)nc3n4CCN4CCCC4C3)ccc2n1` (single isomer, unassigned) [Compound 78], the IC50 under setting [1] is under 100 nM. In the case of `c1cn2cc(-c3ccc4c(c3)nc3n4CCCN4CCCC4C3)ccc2n1` (single isomer, unassigned) [Compound 82], the IC50 under setting [1] is under 10 nM. On the same count and under the same terms, then `c1cn2cc(-c3ccc4c(c3)nc3n4CCCN4CCCC4C3)ccc2n1` (single isomer, unassigned) [Compound 83], with under 10 nM. The compound `Brc1ccc2c(c1)nc1n2CCN2CCC[C@H]2C1` [Compound 1, (S)-10-bromo-2,3,5,6,13,13a-hexahydro-1H-benzo[4,5]imidazo[1,2-d]pyrrolo[2,1-g][1,4]diazepine] returned an IC50 of under 1000 nM. On the same count and under the same terms, the same measure for `N#Cc1ccc(-c2ccc3c(c2)nc2n3CCN3CCC[C@H]3C2)cc1` [Compound 2, (S)-4-(2,3,5,6,13,13a-hexahydro-1H-benzo[4,5]imidazo[1,2-d]pyrrolo[2,1-g][1,4]diazepin-10-yl)benzonitrile]: under 100 nM. Consider `CC(=O)Nc1ccc(-c2ccc3c(c2)nc2n3CCN3CCC[C@H]3C2)cc1` [Compound 3, (S)-N-(4-(2,3,5,6,13,13a-hexahydro-1H-benzo[4,5]imidazo[1,2-d]pyrrolo[2,1-g][1,4]diazepin-10-yl)phenyl)acetamide], for which, under setting [1], the half-maximal inhibitory concentration (IC50) is under 100 nM.

With `c1coc(-c2ccc3c(c2)nc2n3CCN3CCC[C@H]3C2)c1` [Compound 4, (5)-10-(furan-2-yl)-2,3,5,6,13,13a-hexahydro-1H-benzo[4,5]imidazo[1,2-d]pyrrolo[2,1-g][1,4]diazepine], under setting [1], the IC50 is under 1000 nM. The same measure, in the same setting: then `N#Cc1ccc(-c2ccc3c(c2)nc2n3CCN3CCC[C@H]3C2)cn1` [Compound 5, (S)-5-(2,3,5,6,13,13a-hexahydro-1H-benzo[4,5]imidazo[1,2-d]pyrrolo[2,1-g][1,4]diazepin-10-yl)picolinonitrile], with under 100 nM. Same read-out and setting: the same measure for `c1cnc(-c2ccc3c(c2)nc2n3CCN3CCC[C@H]3C2)cn1` [Compound 6, (S)-10-(pyrazin-2-yl)-2,3,5,6,13,13a-hexahydro-1H-benzo[4,5]imidazo[1,2-d]pyrrolo[2,1-g][1,4]diazepine]: over 1000 nM. For the compound `Brc1ccc2c(c1)nc1n2CCN2CCCCC2C1` (centres unmarked) [Compound 7, 11-bromo-1,2,3,4,6,7,14,14a-octahydrobenzo-[4,5]imidazo[1,2-d]pyrido[2,1-g][1,4]diazepine], the IC50 under setting [1] is under 100 nM. For `N#Cc1ccc(-c2ccc3c(c2)nc2n3CCN3CCCCC3C2)cc1` (centres unmarked) [Compound 8, 4-(1,2,3,4,6,7,14,14a-octahydrobenzo[4,5]imidazo-[1,2-d]pyrido[2,1-g][1,4]diazepin-11-yl)benzonitrile], the IC50 under setting [1] was under 10 nM.

For `c1cnc(-c2ccc3c(c2)nc2n3CCN3CCCCC3C2)cn1` (centres unmarked) [Compound 9, 11-(pyrazin-2-yl)-1,2,3,4,6,7,14,14a-octahydrobenzo[4,5]imidazo[1,2-d]pyrido[2,1-g][1,4]diazepine], the IC50 under setting [1] is under 10 nM. Still for that read-out and setting: then `c1cn(-c2ccc3c(c2)nc2n3CCN3CCCCC3C2)cn1` (centres unmarked) [Compound 10, 11-(1H-imidazol-1-yl)-1,2,3,4,6,7,14,14a-octahydrobenzo[4,5]imidazo[1,2-d]pyrido[2,1-g][1,4]diazepine], with under 10 nM.

As for `CN1CCN(c2ccc3c(c2)nc2n3CCN3CCCCC3C2)CC1` (centres unmarked) [Compound 11, 11-(4-methylpiperazin-1-yl)-1,2,3,4,6,7,14,14a-octahydrobenzo[4,5]imidazo[1,2-d]pyrido[2,1-g][1,4]diazepine], the IC50 under setting [1] was under 10 nM. Regarding `Brc1ccc2c(c1)nc1n2CC2CCCN2CC1` (centres unmarked) [Compound 12, 9-bromo-2,3,5,6,13,13a-hexahydro-1H-benzo[4,5]imidazo[1,2-d]pyrrolo[1,2-a][1,4]diazepine], the IC50 was over 1000 nM. Consider `N#Cc1ccc(-c2ccc3c(c2)nc2n3CC3CCCN3CC2)cc1` (centres unmarked) [Compound 13, 4-(2,3,5,6,13,13a-hexahydro-1H-benzo[4,5]imidazo[1,2-d]pyrrolo[1,2-a][1,4]diazepin-9-yl)benzonitrile], for which the IC50 under setting [1] is under 1000 nM. `c1coc(-c2ccc3c(c2)nc2n3CC3CCCN3CC2)c1` (centres unmarked) [Compound 14, 9-(furan-2-yl)-2,3,5,6,13,13a-hexahydro-1H-benzo[4,5]imidazo[1,2-d]pyrrolo[1,2-a][1,4]diazepine]: the IC50 under setting [1] was over 1000 nM. Same read-out and setting: the same measure for `c1cn2cc(-c3ccc4c(c3)nc3n4CCN4CCCCC4C3)ccc2n1` (centres unmarked) [Compound 15, 11-(imidazo[1,2-a]pyridin-6-yl)-1,2,3,4,6,7,14,14a-octahydrobenzo[4,5]imidazo[1,2-d]pyrido[2,1-g][1,4]diazepine]: under 10 nM; for `c1ccc2c(c1)ncn2-c1ccc2c(c1)nc1n2CCN2CCCCC2C1` (centres unmarked) [Compound 16, 11-(1H-benzo[d]imidazol-1-yl)-1,2,3,4,6,7,14,14a-octahydrobenzo[4,5]imidazo[1,2-d]pyrido[2,1-g][1,4]diazepine]: under 10 nM; for `c1cc2c(cc1CN1CCOCC1)nc1n2CCN2CCCCC2C1` (centres unmarked) [Compound 17, 4-((1,2,3,4,6,7,14,14a-octahydrobenzo[4,5]imidazo[1,2-d]pyrido[2,1-g][1,4]diazepin-11-yl)methyl)morpholine]: under 10 nM. For `Clc1ccc2c(c1)nc1n2CC2CCC(C1)N2C1CCC1` (centres unmarked) [Compound 18, 3-chloro-13-cyclobutyl-6,7,8,9,10,11-hexahydro-7,10-epiminobenzo[4,5]imidazo[1,2-a]azocine], the IC50 under setting [1] was under 1000 nM. For `c1coc(-c2ccc3c(c2)nc2n3CC3CCC(C2)N3C2CCC2)c1` (centres unmarked) [Compound 19, 13-cyclobutyl-3-(furan-2-yl)-6,7,8,9,10,11-hexahydro-7,10-epiminobenzo[4,5]imidazo[1,2-a]azocine], the IC50 was under 100 nM.

In the case of `N#Cc1ccc(-c2ccc3c(c2)nc2n3CC3CCC(C2)N3C2CCC2)cc1` (centres unmarked) [Compound 20, 4-(13-cyclobutyl-6,7,8,9,10,11-hexahydro-7,10-epiminobenzo[4,5]imidazo[1,2-a]azocin-3-yl)benzonitrile], under setting [1], the IC50 is under 10 nM. Same read-out and setting: the same measure for `CC(=O)Nc1ccc(-c2ccc3c(c2)nc2n3CC3CCC(C2)N3C2CCC2)cc1` (centres unmarked) [Compound 21, N-(4-(13-cyclobutyl-6,7,8,9,10,11-hexahydro-7,10-epiminobenzo[4,5]imidazo[1,2-a]azocin-3-yl)phenyl)acetamide]: under 10 nM; for `c1cc2cc(-c3ccc4c(c3)nc3n4CC4CCC(C3)N4C3CCC3)ccc2[nH]1` (centres unmarked) [Compound 22, 13-cyclobutyl-3-(1H-indol-5-yl)-6,7,8,9,10,11-hexahydro-7,10-epiminobenzo[4,5]imidazo[1,2-a]azocine]: under 100 nM.

For the compound `NCc1ccc(-c2ccc3c(c2)nc2n3CC3CCC(C2)N3C2CCC2)cc1` (centres unmarked) [Compound 23, (4-(13-cyclobutyl-6,7,8,9,10,11-hexahydro-7,10-epiminobenzo[4,5]imidazo[1,2-a]azocin-3-yl)phenyl)-methanamine], the IC50 is under 10 nM.

Take `N#Cc1ccc(-c2ccc3c(c2)nc2n3CC3CCC(C2)N3C2CCC2)cc1F` (centres unmarked) [Compound 24, 4-(13-cyclobutyl-6,7,8,9,10,11-hexahydro-7,10-epiminobenzo[4,5]imidazo[1,2-a]azocin-3-yl)-2-fluorobenzonitrile]: the IC50 under setting [1] was under 10 nM. Still for that read-out and setting: then `Clc1ccc2c(c1)nc1n2C2CCC1CN(C1CCC1)C2` (centres unmarked) [Compound 25, 8-chloro-3-cyclobutyl-2,3,4,5-tetrahydro-1H-1,5-ethanobenzo[4,5]imidazo[1,2-d][1,4]diazepine], with under 1000 nM. Regarding `N#Cc1ccc(-c2ccc3c(c2)nc2n3C3CCC2CN(C2CCC2)C3)cc1` (centres unmarked) [Compound 26, 4-(3-cyclobutyl-2,3,4,5-tetrahydro-1H-1,5-ethanobenzo[4,5]imidazo[1,2-d][1,4]diazepin-8-yl)benzonitrile], the IC50 was under 100 nM.
